Literature values in US9758545B2, “Sensor with a scaffold having changeable conformations” (UNIVERSITÉ DE FRIBOURG, priority 2010, dated 2017).

Settings: antibiotics integrated into implant cements

Structure (SMILES): CN[C@H](CC(C)C)C(=O)N[C@H]1C(=O)N[C@@H](CC(N)=O)C(=O)N[C@H]2C(=O)N[C@H]3C(=O)NC(C(=O)N[C@@H](C(=O)O)c4cc(O)cc(O)c4-c4cc3ccc4O)[C@H](O)c3ccc(c(Cl)c3)Oc3cc2cc(c3O[C@@H]2OC(CO)[C@@H](O)C(O)C2O[C@H]2CC(C)(N)[C@H](O)C(C)O2)Oc2ccc(cc2Cl)[C@H]1O (stereo partly shown) [Vancomycin]
- temperature sensitive above: above 25 °C
